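Dose response: 5 concentrations. Exposure: 48 h. Format: 96-well plates. Endpoint: linear interpolation; highest concentration if not reached. Definition used: TGI = concentration required for complete inhibition of growth.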
Tests used:
Assay in all cases: inhibition of tumour cell growth, NCI panel, 48 h
[1] = test system: NCI-H522 lung
[2] = test system: NCI-H23 lung
[3] = test system: M19-MEL melanoma
[4] = test system: OVCAR-4 ovarian
[5] = test system: DMS 273 small cell lung
[6] = test system: HOP-62 NSCLC
[7] = test system: SNB-19 CNS
[8] = test system: MOLT-4 leukemia
[9] = test system: NCI-H460 lung
[10] = test system: SR leukemia
[11] = test system: MALME-3M melanoma
[12] = test system: SK-MEL-28 melanoma
[13] = test system: HOP-18 NSCLC
[14] = test system: HOP-92 NSCLC
[15] = test system: SK-OV-3 ovarian
[16] = test system: SF-295 CNS
[17] = test system: SF-539 CNS
[18] = test system: K-562 leukemia
[19] = test system: U251 CNS
[20] = test system: SF-268 CNS
[21] = test system: HCC-2998 colon
[22] = test system: RXF 393 renal
[23] = test system: RPMI-8226 leukemia
[24] = test system: 786-0 renal
[25] = test system: OVCAR-5 ovarian
[26] = test system: IGROV1 ovarian
[27] = test system: UO-31 renal
[28] = test system: LOX IMVI melanoma
[29] = test system: COLO 205 colon
[30] = test system: SNB-78 CNS
[31] = test system: LXFL 529 NSCLC
[32] = test system: TK-10 renal
[33] = test system: HCT-116 colon
[34] = test system: OVCAR-8 ovarian
[35] = test system: CAKI-1 renal
[36] = test system: KM12 colon
[37] = test system: A498 renal
[38] = test system: UACC-257 melanoma
[39] = test system: SNB-75 CNS
[40] = test system: DLD-1 colon
[41] = test system: SN12C renal
[42] = test system: UACC-62 melanoma
[43] = test system: HT29 colon
[44] = test system: ACHN renal
[45] = test system: A549 NSCLC
[46] = test system: M14 melanoma
[47] = test system: DMS 114 small cell lung
[48] = test system: OVCAR-3 ovarian
[49] = test system: EKVX NSCLC
[50] = test system: HL-60(TB) leukemia
[51] = test system: KM20L2 colon
[52] = test system: CCRF-CEM leukemia
[53] = test system: SW-620 colon
[54] = test system: NCI-H226 lung
[55] = test system: SK-MEL-5 melanoma
[56] = test system: SK-MEL-2 melanoma
[57] = test system: HCT-15 colon
[58] = test system: MDA-MB-435
[59] = test system: T-47D breast
[60] = test system: DU-145 prostate
[61] = test system: HS 578T breast
[62] = test system: MCF7 breast
[63] = test system: MDA-N
[64] = test system: PC-3 prostate
[65] = test system: BT-549 breast
[66] = test system: MDA-MB-231 breast
[67] = test system: NCI/ADR-RES ovarian

N#C/C(=C1\OC(N)=C(c2ccc(Cl)cc2)C1=O)c1ccc(Cl)cc1
TGI [1]: 24.6 µM | TGI [2]: 27.1 µM | TGI [3]: 31.4 µM | TGI [4]: 32 µM | TGI [5]: 26.7 µM | TGI [6]: 33.4 µM | TGI [7]: 39.6 µM | TGI [8]: 50.9 µM | TGI [9]: 34 µM | TGI [10]: 54.7 µM | TGI [11]: 34.3 µM | TGI [12]: 67.7 µM | TGI [13]: 30.8 µM | TGI [14]: 32.2 µM | TGI [15]: 89.1 µM | TGI [16]: 29.2 µM | TGI [17]: 27.6 µM | TGI [18]: > 100 µM | TGI [19]: 29.1 µM | TGI [20]: > 100 µM | TGI [21]: 30.9 µM | TGI [22]: 25.4 µM | TGI [23]: 50 µM | TGI [24]: 29.4 µM | TGI [25]: 9.74 µM | TGI [26]: 38.3 µM | TGI [27]: 29.8 µM | TGI [28]: 31.4 µM | TGI [29]: 32.8 µM | TGI [30]: 31.4 µM | TGI [31]: 24.3 µM | TGI [32]: 41.4 µM | TGI [33]: 32.4 µM | TGI [34]: 26.3 µM | TGI [35]: 34.1 µM | TGI [36]: 31.4 µM | TGI [37]: 31.1 µM | TGI [38]: 29 µM | TGI [39]: 32.4 µM | TGI [40]: 30.9 µM | TGI [41]: 23 µM | TGI [42]: 27.5 µM | TGI [43]: 39.5 µM | TGI [44]: 33.1 µM | TGI [45]: 50.9 µM | TGI [46]: 29.8 µM | TGI [47]: 29.3 µM | TGI [48]: 28 µM | TGI [49]: 32.4 µM | TGI [50]: 44.4 µM | TGI [51]: 33 µM | TGI [52]: 73.5 µM | TGI [53]: 25.9 µM

Cc1ccc(S(=O)(=O)N/N=C\c2c3ccccc3[n+](C)c3ccccc23)cc1
TGI [1]: > 100 µM | TGI [2]: > 100 µM | TGI [3]: > 100 µM | TGI [4]: > 100 µM | TGI [5]: 64.7 µM | TGI [6]: > 100 µM | TGI [7]: 75.1 µM | TGI [8]: 53.3 µM | TGI [9]: 50.3 µM | TGI [11]: 95.3 µM | TGI [12]: > 100 µM | TGI [14]: 73.2 µM | TGI [15]: > 100 µM | TGI [16]: 30.3 µM | TGI [17]: 54 µM | TGI [18]: 52.7 µM | TGI [19]: 71.3 µM | TGI [20]: > 100 µM | TGI [21]: > 100 µM | TGI [22]: 43.6 µM | TGI [23]: > 100 µM | TGI [24]: > 100 µM | TGI [25]: > 100 µM | TGI [26]: > 100 µM | TGI [27]: 88.9 µM | TGI [28]: 52.9 µM | TGI [54]: 60.1 µM | TGI [55]: 98.5 µM | TGI [30]: > 100 µM | TGI [32]: > 100 µM | TGI [33]: > 100 µM | TGI [34]: > 100 µM | TGI [35]: > 100 µM | TGI [56]: > 100 µM | TGI [36]: > 100 µM | TGI [37]: > 100 µM | TGI [38]: > 100 µM | TGI [39]: 46 µM | TGI [40]: > 100 µM | TGI [41]: > 100 µM | TGI [42]: 74.6 µM | TGI [43]: 62.6 µM | TGI [44]: > 100 µM | TGI [45]: > 100 µM | TGI [46]: 97.9 µM | TGI [47]: > 100 µM | TGI [48]: 71.5 µM | TGI [49]: > 100 µM | TGI [50]: 59.6 µM | TGI [57]: 97.4 µM | TGI [51]: > 100 µM | TGI [52]: 44.2 µM | TGI [53]: > 100 µM

O=C(O)C1CSC2(CCCN(Cc3ccccc3)C2)N1 (stereo not drawn)
TGI [1]: > 100 µM | TGI [58]: > 100 µM | TGI [2]: > 100 µM | TGI [4]: > 100 µM | TGI [6]: > 100 µM | TGI [7]: > 100 µM | TGI [59]: > 100 µM | TGI [8]: > 59.9 µM | TGI [9]: > 100 µM | TGI [10]: 34.4 µM | TGI [11]: > 100 µM | TGI [12]: > 100 µM | TGI [14]: > 100 µM | TGI [15]: > 100 µM | TGI [16]: > 100 µM | TGI [17]: > 100 µM | TGI [18]: > 81.1 µM | TGI [19]: > 100 µM | TGI [60]: > 100 µM | TGI [20]: > 100 µM | TGI [21]: > 100 µM | TGI [22]: > 100 µM | TGI [23]: > 34.4 µM | TGI [24]: > 100 µM | TGI [61]: > 100 µM | TGI [25]: > 100 µM | TGI [26]: > 100 µM | TGI [62]: > 100 µM | TGI [63]: > 100 µM | TGI [27]: > 100 µM | TGI [28]: > 100 µM | TGI [54]: > 100 µM | TGI [64]: > 100 µM | TGI [65]: > 100 µM | TGI [29]: > 100 µM | TGI [55]: > 100 µM | TGI [32]: > 100 µM | TGI [33]: > 100 µM | TGI [34]: > 100 µM | TGI [35]: > 100 µM | TGI [56]: > 100 µM | TGI [36]: > 100 µM | TGI [37]: > 100 µM | TGI [38]: > 100 µM | TGI [66]: > 100 µM | TGI [39]: > 100 µM | TGI [41]: > 100 µM | TGI [42]: > 100 µM | TGI [43]: > 100 µM | TGI [67]: > 100 µM | TGI [44]: > 100 µM | TGI [45]: > 100 µM | TGI [46]: > 100 µM | TGI [48]: > 100 µM | TGI [49]: > 100 µM | TGI [50]: > 100 µM | TGI [57]: > 100 µM | TGI [52]: > 79.6 µM | TGI [53]: > 100 µM

COc1ccc(C2=NN(c3nsc4ccccc34)C(=O)CC2)cc1
TGI [2]: > 100 µM | TGI [3]: > 100 µM | TGI [4]: > 100 µM | TGI [5]: > 100 µM | TGI [6]: > 100 µM | TGI [7]: > 100 µM | TGI [8]: > 100 µM | TGI [9]: > 100 µM | TGI [10]: > 100 µM | TGI [12]: > 100 µM | TGI [13]: > 100 µM | TGI [14]: > 100 µM | TGI [17]: > 100 µM | TGI [18]: > 100 µM | TGI [19]: > 100 µM | TGI [20]: > 100 µM | TGI [21]: > 100 µM | TGI [22]: > 100 µM | TGI [23]: > 100 µM | TGI [25]: > 100 µM | TGI [26]: > 100 µM | TGI [27]: > 100 µM | TGI [28]: > 100 µM | TGI [29]: > 100 µM | TGI [55]: > 100 µM | TGI [30]: > 100 µM | TGI [31]: > 100 µM | TGI [32]: > 100 µM | TGI [33]: > 100 µM | TGI [34]: > 100 µM | TGI [56]: > 100 µM | TGI [36]: > 100 µM | TGI [38]: > 100 µM | TGI [39]: > 100 µM | TGI [41]: > 100 µM | TGI [42]: > 100 µM | TGI [43]: > 100 µM | TGI [44]: > 100 µM | TGI [45]: > 100 µM | TGI [46]: > 100 µM | TGI [47]: > 100 µM | TGI [48]: > 100 µM | TGI [49]: > 100 µM | TGI [50]: > 100 µM | TGI [57]: > 100 µM | TGI [51]: > 100 µM | TGI [52]: > 100 µM | TGI [53]: > 100 µM
